Values of other authors, collected in US20120184504A1, “"The Use of a PAR-1 Antagonist in Combination with a P2Y12 ADP Receptor Antagonist for Inhibition of Thrombosis"” (priority 2009, published 2012).
Read-outs that look alike come from different tables or passages of the source.

Key:
[1] = test system: CFRs (coronary thrombus formation); conditions: pigs, cited from earlier work
[2] = test system: ischemic events and bleeding in patients; conditions: two phase 2 trials; cited from earlier work
[3] = test system: clinical events and bleeding in patients with acute coronary syndromes; conditions: cited from earlier work

COC(=O)[C@H](c1ccccc1Cl)N1CCc2sccc2C1 [clopidogrel]
effect on CFRs ([1]; clopidogrel alone 5 mg/kg): reduced, but did not completely abolish

CCOC(=O)N[C@@H]1CC[C@@H]2[C@@H](C1)C[C@H]1C(=O)O[C@H](C)[C@H]1[C@H]2/C=C/c1ccc(-c2cccc(F)c2)cn1 [SCH 530348]
bleeding [2]: without an accompanying increase in bleeding | incidence of ischemic events [2]: strong trends towards reduced incidence of ischemic events

CC(=O)Oc1cc2c(s1)CCN(C(C(=O)C1CC1)c1ccccc1F)C2 (stereo not drawn) [prasugrel]
remaining prevalence of clinical events [3]: 10% | incremental reduction in clinical events ([3]; prasugrel versus clopidogrel): 19%

CC(=O)Oc1ccccc1C(=O)O [aspirin]
effect on CFRs ([1]; aspirin alone 7 mg/kg): reduced, but did not completely abolish
